We go through one molecule from patent EP0783890A1, “Use of 2-methyl-4-(4-methyl-1-piperazinyl)-10H-thieno(2,3-b)(1,5)benzodiazepine for the treatment of fungal dermatitis” (ELI LILLY AND COMPANY, priority 1995, dated 1997).

The subject of data set [1] is conditioned avoidance response. Particulars: rats; cited from earlier work.
Data set [2] concerns apomorphine-induced hypothermia. The following applies: mice; cited from earlier work.
A further data set concerns the target T1, 5-HT1C receptor (Homo sapiens, UniProt P28335).
T1 sequence (P28335 33-458): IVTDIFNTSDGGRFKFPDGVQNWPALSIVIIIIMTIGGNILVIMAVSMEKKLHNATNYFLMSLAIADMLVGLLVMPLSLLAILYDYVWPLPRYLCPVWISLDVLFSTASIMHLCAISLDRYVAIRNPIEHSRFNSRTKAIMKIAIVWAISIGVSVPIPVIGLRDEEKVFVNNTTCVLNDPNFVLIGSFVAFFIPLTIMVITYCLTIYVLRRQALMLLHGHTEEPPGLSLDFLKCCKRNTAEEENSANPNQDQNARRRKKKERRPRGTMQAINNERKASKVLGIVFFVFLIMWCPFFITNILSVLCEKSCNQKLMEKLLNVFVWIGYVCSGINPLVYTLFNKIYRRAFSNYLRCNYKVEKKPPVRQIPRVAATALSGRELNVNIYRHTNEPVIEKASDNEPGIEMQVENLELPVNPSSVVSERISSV
The following applies: in vitro; cited from earlier work.

Data set [3] has as its system apomorphine-induced climbing behavior. Particulars: mice; cited from earlier work.
A short description of data set [4]: double-blind, randomized, placebo and haloperidol-controlled clinical trial: occurrence of fungal dermatitis. The class given is in vivo. The following applies: 15 +/-2.5 mg/day vs haloperidol (15 +/- 5 mg/day), double-blind extension treatment phase, human subjects. As to the method: Such effectiveness for the treatment, amelioration of fungal dermatitis was shown in the following clinical trial:
The study was a double-blind, randomized, parallel, placebo and haloperidol-controlled study of 55 human subjects. The study was conducted in 23 study centers throughout the United States and Canada. […] The acute phase lasted for 6 weeks with evaluations performed weekly followed by a double-blind extension phase of at least one year.

Data set [5] can be described thus: detection of radiolabelled compound in saliva. The class given is in vivo. The method, then: For example, in the treatment of adult humans, dosages of from about 5 to 20 mg per day may be used. A once a day dosage is normally sufficient, although divided doses may be administered. For treatment of fungal dermatitis in a human, a dose range of from about […], preferably 5 to 20 mg per day is suitable.

Consider `Cc1cc2c(s1)Nc1ccccc1N=C2N1CCN(C)CC1` [2-methyl-4-(4-methyl-1-piperazinyl)-10H-thieno[2,3-b][1,5]benzodiazepine], for which the conditioned avoidance response result in data set [1] was “inhibits”. In addition, in data set [2], the apomorphine-induced hypothermia result was “antagonized”. In addition, at 5-HT1C receptor, the “activity at the 5-HT1C receptor” value was “active”. Further, in data set [3], the apomorphine-induced climbing behavior result is given as “antagonized”. For the same molecule, the “occurrence of fungal dermatitis compared with haloperidol” value in data set [4] was “statistically significantly less frequently”. In addition, in data set [5], the “detection in the saliva” value is recorded as “can be detected in the saliva”.
